Data as given in PubChem BioAssay AID1963839 (Molecular Pharmacology Branch, DTP, NCI, 2024).

Test system: 817829-284-R-J1-PDC complex spheroid viability
Assay: Anticancer human tumor 817829-284-R-J1-PDC patient-derived colon adenocarcinoma cell line growth inhibition [POLQ]
Conditions: for IC50: curve of first compound; for viability, T/C: stronger effect = lower value
Procedure, shortened: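 Growth inhibition in 3D: complex spheroids (tumor PDC, HUVEC, MSC) treated with POLQ inhibitor combinations; where Cmax unknown, highest tested concentration 10 microM, except SN-38 at 1 microM.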

[1] = second compound 0.0316 µM, first compound 0.0316 µM
[2] = second compound 0.0316 µM, first compound 0.1 µM
[3] = second compound 0.0316 µM, first compound 0.316 µM
[4] = second compound 0.0316 µM, first compound 1 µM
[5] = second compound 0.0316 µM, first compound 3.16 µM
[6] = second compound 0.0316 µM, first compound 10 µM
[7] = second compound 0.1 µM, first compound 0.0316 µM
[8] = second compound 0.1 µM, first compound 0.1 µM
[9] = second compound 0.1 µM, first compound 0.316 µM
[10] = second compound 0.1 µM, first compound 1 µM
[11] = second compound 0.1 µM, first compound 3.16 µM
[12] = second compound 0.1 µM, first compound 10 µM
[13] = second compound 0.316 µM, first compound 0.0316 µM
[14] = second compound 0.316 µM, first compound 0.1 µM
[15] = second compound 0.316 µM, first compound 0.316 µM
[16] = second compound 0.316 µM, first compound 1 µM
[17] = second compound 0.316 µM, first compound 3.16 µM
[18] = second compound 0.316 µM, first compound 10 µM
[19] = second compound 1 µM, first compound 0.0316 µM
[20] = second compound 1 µM, first compound 0.1 µM
[21] = second compound 1 µM, first compound 0.316 µM
[22] = second compound 1 µM, first compound 1 µM
[23] = second compound 1 µM, first compound 3.16 µM
[24] = second compound 1 µM, first compound 10 µM
[25] = second compound 3.16 µM, first compound 0.0316 µM
[26] = second compound 3.16 µM, first compound 0.1 µM
[27] = second compound 3.16 µM, first compound 0.316 µM
[28] = second compound 3.16 µM, first compound 1 µM
[29] = second compound 3.16 µM, first compound 3.16 µM
[30] = second compound 3.16 µM, first compound 10 µM
[31] = second compound 10 µM, first compound 0.0316 µM
[32] = second compound 10 µM, first compound 0.1 µM
[33] = second compound 10 µM, first compound 0.316 µM
[34] = second compound 10 µM, first compound 1 µM
[35] = second compound 10 µM, first compound 3.16 µM
[36] = second compound 10 µM, first compound 10 µM
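Note: spheroids exposed to compounds for 7 days.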
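Throughout, for viability, T/C: 100% = DMSO vehicle-treated spheroids.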

## CC1COCCN1c1cc(C2(O)CC3CCC(C2)O3)c2cnn(-c3ccn[nH]3)c2n1 (stereo not given) + COC1C(OC(N)=O)C(O)C(Oc2ccc3c(O)c(NC(=O)c4ccc(O)c(CC=C(C)C)c4)c(=O)oc3c2C)OC1(C)C
Second compound 0.0316 µM
  IC50: < 0.0316 µM
Second compound 0.1 µM
  IC50: < 0.0316 µM
Second compound 0.316 µM
  IC50: < 0.0316 µM
Second compound 1 µM
  IC50: < 0.0316 µM
Second compound 3.16 µM
  IC50: < 0.0316 µM
Second compound 10 µM
  IC50: < 0.0316 µM
[1]
  viability, T/C: 18.5%
[2]
  viability, T/C: 10.7%
[3]
  viability, T/C: 3.93%
[4]
  viability, T/C: 3.7%
[5]
  viability, T/C: 3.65%
[6]
  viability, T/C: 2.96%
[7]
  viability, T/C: 29.2%
[8]
  viability, T/C: 8.78%
[9]
  viability, T/C: 4.49%
[10]
  viability, T/C: 2.72%
[11]
  viability, T/C: 3.01%
[12]
  viability, T/C: 1.82%
[13]
  viability, T/C: 25.9%
[14]
  viability, T/C: 8.28%
[15]
  viability, T/C: 5.16%
[16]
  viability, T/C: 3.2%
[17]
  viability, T/C: 2.69%
[18]
  viability, T/C: 2.57%
[19]
  viability, T/C: 24.7%
[20]
  viability, T/C: 9.42%
[21]
  viability, T/C: 4.54%
[22]
  viability, T/C: 3.29%
[23]
  viability, T/C: 3.01%
[24]
  viability, T/C: 1.8%
[25]
  viability, T/C: 27.9%
[26]
  viability, T/C: 10.5%
[27]
  viability, T/C: 4.65%
[28]
  viability, T/C: 3.82%
[29]
  viability, T/C: 2.76%
[30]
  viability, T/C: 2.53%
[31]
  viability, T/C: 21.5%
[32]
  viability, T/C: 9.85%
[33]
  viability, T/C: 5.03%
[34]
  viability, T/C: 4.12%
[35]
  viability, T/C: 2.91%
[36]
  viability, T/C: 2.64%

## CCc1cc2c(N3CCc4c(cc(Cn5ccnc5)cc4-c4cn(C)nc4C(F)(F)F)C3=O)cc(C)nc2c(OC)n1 + COC1C(OC(N)=O)C(O)C(Oc2ccc3c(O)c(NC(=O)c4ccc(O)c(CC=C(C)C)c4)c(=O)oc3c2C)OC1(C)C
Second compound 0.0316 µM
  IC50: 3.1 µM
Second compound 0.1 µM
  IC50: 1.72 µM
Second compound 0.316 µM
  IC50: 1.95 µM
Second compound 1 µM
  IC50: 1.4 µM
Second compound 3.16 µM
  IC50: 3.38 µM
Second compound 10 µM
  IC50: 2.3 µM
[1]
  viability, T/C: 82.7%
[2]
  viability, T/C: 82.2%
[3]
  viability, T/C: 77.6%
[4]
  viability, T/C: 61.9%
[5]
  viability, T/C: 51.9%
[6]
  viability, T/C: 27.7%
[7]
  viability, T/C: 115%
[8]
  viability, T/C: 86.8%
[9]
  viability, T/C: 68.5%
[10]
  viability, T/C: 55.6%
[11]
  viability, T/C: 47.9%
[12]
  viability, T/C: 34.2%
[13]
  viability, T/C: 76.8%
[14]
  viability, T/C: 81.9%
[15]
  viability, T/C: 68.4%
[16]
  viability, T/C: 61.7%
[17]
  viability, T/C: 41.7%
[18]
  viability, T/C: 35.8%
[19]
  viability, T/C: 95.6%
[20]
  viability, T/C: 86.8%
[21]
  viability, T/C: 78%
[22]
  viability, T/C: 52%
[23]
  viability, T/C: 41.9%
[24]
  viability, T/C: 34.7%
[25]
  viability, T/C: 87.5%
[26]
  viability, T/C: 74.2%
[27]
  viability, T/C: 75.3%
[28]
  viability, T/C: 58.1%
[29]
  viability, T/C: 58.3%
[30]
  viability, T/C: 31.4%
[31]
  viability, T/C: 81.2%
[32]
  viability, T/C: 85.3%
[33]
  viability, T/C: 82.6%
[34]
  viability, T/C: 65.6%
[35]
  viability, T/C: 44.5%
[36]
  viability, T/C: 31.7%

## COc1cc2cc(C(=O)CCC(=O)O)sc2cc1OC + COC1C(OC(N)=O)C(O)C(Oc2ccc3c(O)c(NC(=O)c4ccc(O)c(CC=C(C)C)c4)c(=O)oc3c2C)OC1(C)C
Second compound 0.0316 µM
  IC50: > 10 µM
Second compound 0.1 µM
  IC50: > 10 µM
Second compound 0.316 µM
  IC50: > 10 µM
Second compound 1 µM
  IC50: > 10 µM
Second compound 3.16 µM
  IC50: > 10 µM
Second compound 10 µM
  IC50: > 10 µM
[1]
  viability, T/C: 81.3%
[2]
  viability, T/C: 96.4%
[3]
  viability, T/C: 83.3%
[4]
  viability, T/C: 85.8%
[5]
  viability, T/C: 94.6%
[6]
  viability, T/C: 85.6%
[7]
  viability, T/C: 97.8%
[8]
  viability, T/C: 104%
[9]
  viability, T/C: 89.7%
[10]
  viability, T/C: 98.2%
[11]
  viability, T/C: 49.2%
[12]
  viability, T/C: 102%
[13]
  viability, T/C: 75.7%
[14]
  viability, T/C: 94.6%
[15]
  viability, T/C: 88.9%
[16]
  viability, T/C: 94.6%
[17]
  viability, T/C: 112%
[18]
  viability, T/C: 66.7%
[19]
  viability, T/C: 88.2%
[20]
  viability, T/C: 109%
[21]
  viability, T/C: 71.1%
[22]
  viability, T/C: 105%
[23]
  viability, T/C: 83.9%
[24]
  viability, T/C: 86.1%
[25]
  viability, T/C: 85.5%
[26]
  viability, T/C: 108%
[27]
  viability, T/C: 98.7%
[28]
  viability, T/C: 99.5%
[29]
  viability, T/C: 110%
[30]
  viability, T/C: 61.3%
[31]
  viability, T/C: 106%
[32]
  viability, T/C: 71.2%
[33]
  viability, T/C: 90.9%
[34]
  viability, T/C: 80.8%
[35]
  viability, T/C: 117%
[36]
  viability, T/C: 74.1%

## O=C(Nc1ccc(O)c(NS(=O)(=O)c2ccc(F)cc2)c1)c1ccc(-c2ccccc2)cc1 + COC1C(OC(N)=O)C(O)C(Oc2ccc3c(O)c(NC(=O)c4ccc(O)c(CC=C(C)C)c4)c(=O)oc3c2C)OC1(C)C
Second compound 0.0316 µM
  IC50: 7.82 µM
Second compound 0.1 µM
  IC50: 7.15 µM
Second compound 0.316 µM
  IC50: 5.73 µM
Second compound 1 µM
  IC50: 6.35 µM
Second compound 3.16 µM
  IC50: 6.53 µM
Second compound 10 µM
  IC50: 7.4 µM
[1]
  viability, T/C: 114%
[2]
  viability, T/C: 68.6%
[3]
  viability, T/C: 95.2%
[4]
  viability, T/C: 72.2%
[5]
  viability, T/C: 72.9%
[6]
  viability, T/C: 38.4%
[7]
  viability, T/C: 74.9%
[8]
  viability, T/C: 108%
[9]
  viability, T/C: 79.2%
[10]
  viability, T/C: 101%
[11]
  viability, T/C: 84%
[12]
  viability, T/C: 36%
[13]
  viability, T/C: 91.5%
[14]
  viability, T/C: 106%
[15]
  viability, T/C: 90.4%
[16]
  viability, T/C: 87.7%
[17]
  viability, T/C: 68.9%
[18]
  viability, T/C: 32.4%
[19]
  viability, T/C: 100%
[20]
  viability, T/C: 84.8%
[21]
  viability, T/C: 107%
[22]
  viability, T/C: 84.7%
[23]
  viability, T/C: 66.6%
[24]
  viability, T/C: 39.6%
[25]
  viability, T/C: 91.9%
[26]
  viability, T/C: 100%
[27]
  viability, T/C: 103%
[28]
  viability, T/C: 103%
[29]
  viability, T/C: 68.5%
[30]
  viability, T/C: 39.1%
[31]
  viability, T/C: 82.8%
[32]
  viability, T/C: 109%
[33]
  viability, T/C: 99.6%
[34]
  viability, T/C: 109%
[35]
  viability, T/C: 66.7%
[36]
  viability, T/C: 44.1%

## COc1cccc2c1C(=O)c1c(O)c3c(c(O)c1C2=O)CC(O)(C(=O)CO)CC3OC1CC(N)C(O)C(C)O1 (stereo not given) + Cc1cccc(N(C)C(=O)C2C(O)CCN2c2nc(C)cc(C(F)(F)F)c2C#N)c1
Second compound 0.0316 µM
  IC50: < 0.0316 µM
Second compound 0.1 µM
  IC50: < 0.0316 µM
Second compound 0.316 µM
  IC50: < 0.0316 µM
Second compound 1 µM
  IC50: < 0.0316 µM
Second compound 3.16 µM
  IC50: < 0.0316 µM
Second compound 10 µM
  IC50: < 0.0316 µM
[1]
  viability, T/C: 20.6%
[2]
  viability, T/C: 18.4%
[3]
  viability, T/C: 6.01%
[4]
  viability, T/C: 0.9%
[5]
  viability, T/C: 0.17%
[6]
  viability, T/C: 0.48%
[7]
  viability, T/C: 21.8%
[8]
  viability, T/C: 15.9%
[9]
  viability, T/C: 7.06%
[10]
  viability, T/C: 0.26%
[11]
  viability, T/C: 0.22%
[12]
  viability, T/C: 0.58%
[13]
  viability, T/C: 20.2%
[14]
  viability, T/C: 17.8%
[15]
  viability, T/C: 6.56%
[16]
  viability, T/C: 0.38%
[17]
  viability, T/C: 0.19%
[18]
  viability, T/C: 0.58%
[19]
  viability, T/C: 21.2%
[20]
  viability, T/C: 14.6%
[21]
  viability, T/C: 6.03%
[22]
  viability, T/C: 0.54%
[23]
  viability, T/C: 0.29%
[24]
  viability, T/C: 0.51%
[25]
  viability, T/C: 20.1%
[26]
  viability, T/C: 17.9%
[27]
  viability, T/C: 3.35%
[28]
  viability, T/C: 0.34%
[29]
  viability, T/C: 0.32%
[30]
  viability, T/C: 0.6%
[31]
  viability, T/C: 17.4%
[32]
  viability, T/C: 12.3%
[33]
  viability, T/C: 4.14%
[34]
  viability, T/C: 0.48%
[35]
  viability, T/C: 0.3%
[36]
  viability, T/C: 0.5%
